Laboratory results as given in publication PMC6152209, “Synthesis, Characterization and In Vitro Evaluation of a Novel Glycol Chitosan-EDTA Conjugate to Inhibit Aminopeptidase-Mediated Degradation of Thymopoietin Oligopeptides” (Molecules : A Journal of Synthetic Chemistry and Natural …, 2017).
Read-outs that look alike come from different tables or passages of the source. Residues, ends and D or L forms follow the SMILES beside them.

Assays:
[1] = cobalt ion chelation-mediated fluorescence recovery of calcein; assay type: physicochemical; conditions: calcein 0.0625 µg/mL, calcein:cobalt dichloride 1:1 molar, normalized maximum fluorescence emission F/F0, excitation 490 nm
From the text: It is well known that calcein fluorescence can be strongly quenched by cobalt ions at physiological pH, while removal of cobalt ion from the complex by EDTA-mediated chelation will lead to a significant increase in fluorescence intensity. Thus, the chelating capacity of the resultant conjugate can be determined by measuring the cobalt ion-chelating-mediated fluorescence recovery of calcein. […] The excitation wavelength of calcein was set at 490 and its emission was monitored in the range of 500–650 nm. The slits of excitation and emission were set at 5 and 3 nm, respectively. All background effects were subtracted. In addition, the same experiment was done in the presence of EDTA.

leucine aminopeptidase [2] = molecular target: T1, leucine aminopeptidase (Sus scrofa, UniProt P15145); conditions: pH 7
T1 sequence (P15145 1-963): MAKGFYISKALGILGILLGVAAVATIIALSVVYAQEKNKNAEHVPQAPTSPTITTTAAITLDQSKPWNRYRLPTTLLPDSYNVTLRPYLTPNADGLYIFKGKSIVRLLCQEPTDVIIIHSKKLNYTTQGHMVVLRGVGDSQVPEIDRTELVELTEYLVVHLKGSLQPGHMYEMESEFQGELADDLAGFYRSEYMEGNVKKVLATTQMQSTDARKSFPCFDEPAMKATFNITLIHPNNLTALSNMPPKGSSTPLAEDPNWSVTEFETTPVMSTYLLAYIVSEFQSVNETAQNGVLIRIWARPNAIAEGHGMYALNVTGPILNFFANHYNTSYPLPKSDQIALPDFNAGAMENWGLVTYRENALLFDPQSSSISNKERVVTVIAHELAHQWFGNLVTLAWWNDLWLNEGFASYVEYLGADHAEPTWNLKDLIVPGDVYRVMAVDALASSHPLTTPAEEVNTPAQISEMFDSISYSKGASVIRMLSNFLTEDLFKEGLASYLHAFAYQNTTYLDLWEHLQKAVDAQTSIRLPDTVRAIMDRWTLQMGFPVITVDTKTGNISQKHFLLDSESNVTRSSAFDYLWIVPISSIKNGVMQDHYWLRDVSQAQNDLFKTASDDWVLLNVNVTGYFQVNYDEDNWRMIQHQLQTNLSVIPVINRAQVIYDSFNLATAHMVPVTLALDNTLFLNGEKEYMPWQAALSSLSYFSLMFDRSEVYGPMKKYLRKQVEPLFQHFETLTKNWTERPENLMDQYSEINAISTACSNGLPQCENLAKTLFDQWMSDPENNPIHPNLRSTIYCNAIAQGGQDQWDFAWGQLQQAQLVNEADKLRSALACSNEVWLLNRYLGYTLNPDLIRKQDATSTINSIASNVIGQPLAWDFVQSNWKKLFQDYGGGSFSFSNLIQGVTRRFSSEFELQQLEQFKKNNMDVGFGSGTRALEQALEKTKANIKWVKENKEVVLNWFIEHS
Protocol: (§1) After a 30-min enzymatic activation, the stock solutions of three thymopoietin oligopeptides were added into the above solution and made the final concentration of peptides at 0.1 mM. At specified time intervals after adding peptide, 100 µL aliquots were sampled and diluted with an equal volume of 1 M perchloric acid incubated in an ice bath to stop reaction. Meanwhile, a 100 mL aliquot of the abovementioned buffer was added to the incubation medium. […] All experiments were replicated at least three times.
(§2) Cldeg was determined by linear regression analysis from plots of ΣM versus the AUC at different time points [3, 11].

leucine aminopeptidase [3] = molecular target: T1, leucine aminopeptidase; test: leucine aminopeptidase-mediated degradation of thymopoietin oligopeptides (degradation kinetics and clearance); conditions: peptide 0.1 mM, LAP 0.01 U/mL, Krebs phosphate buffer pH 7.0, 37 °C, RP-HPLC, Cldeg from ΣM versus AUC, at least three replicates
Protocol: as §1, §2

O=C(O)CN(CCN(CC(=O)O)CC(=O)O)CC(=O)O [EDTA, ethylene diamine tetraacetic acid]
EDTA group concentration above which the calcein fluorescence plateau was reached (almost complete removal of cobalt ions from the calcein/cobalt ion complex) [1]: higher than 0.67 µM

N=C(N)NCCC[C@H](N)C(=O)N[C@@H](CCCCN)C(=O)N[C@@H](CC(=O)O)C(=O)O [TP3, Thymotrinan] (H-Arg-Lys-Asp-OH)
order of susceptibility to leucine aminopeptidase (degradation clearance) (leucine aminopeptidase [2]): TP4 > TP5 > TP3

CC(C)[C@H](NC(=O)[C@H](CC(=O)O)NC(=O)[C@H](CCCCN)NC(=O)[C@@H](N)CCCNC(=N)N)C(=O)O [TP4, thymocartin] (H-RKDV-OH)
order of susceptibility to leucine aminopeptidase (degradation clearance) (leucine aminopeptidase [3]): TP4 > TP5 > TP3
